Data from patent US9717792B2, “Combination therapy for cancer using HSP27 inhibitor and EGFR tyrosine kinase inhibitors or anti-folates” (The University Of British Columbia, priority 2012, dated 2017).

How the values were obtained:
[1] = system: Hsp27 mRNA; test: Hsp27 mRNA expression by quantitative RT-PCR in A549 cells; conditions: 5 or 10 μM Erlotinib for 24 or 48 hours; normalized to GAPDH mRNA
Protocol: Hsp27 mRNA expression was analyzed by quantitative RT-PCR. Hsp27 mRNA levels were normalized to levels of GAPDH mRNA. Bars, SD. ** and *, differ from control (P<0.01 and P<0.05, respectively).

[2] = system: A549 lung cancer cells; test: Western blot of protein levels in A549 cells; assay type: cell-based, human
Protocol: Western blots: To perform Westerns, cell lysates were prepared under non-denaturing conditions. Briefly, the cell lysates were to immunoprecipition, and subsequently immunoblotted using antibody and visualized via electrophoresis and autoradiogram.
48 and 72 hours of exposure.
Protein expression was analyzed by western blotting. […] Flow cytometry was used to quantify the percentage of cells in each cell cycle phase.
(§1) Cleaved PARP, p-EGFR(Tyr1068), EGFR, p-Hsp27(Ser82), Hsp27, and Beta-actin were assayed.
Western gels were run on cell protein prepared under standard non-denaturing conditions, and relative levels of p-Hsp27(Ser82), Hsp27, cleaved PARP, and beta-actin were detected using commercial antibodies from Cell Signalling (Danvers, USA). Protein levels from zero to 48 hours for a 1 microMolar pemetrexed exposure were measured.
72 h later, cell viability was determined by crystal violet assay. […] Protein levels were also determined in these cells by immunoblotting.

[3] = system: HCC827 cells; test: Western blot of protein levels in HCC827 parental cells; assay type: cell-based, human; conditions: erlotinib 2.5 nanomolar; vs non-treated cells
Excerpt: Levels of p-EGFR(Tyr1068), EGFR, Hsp27, Cleaved PARP, Cleaved and whole Caspase-3, and beta-actin (cell protein control) were detected.

[4] = system: Hsp27 OE A549 cells; test: Hsp27-overexpressing A549 cells: western blotting and flow cytometry after Erlotinib; assay type: cell-based, human
Protocol: The cell viability was determined by crystal violet assay.
The cells undergoing apoptosis (subG0/G1 fraction) were quantified using flow cytometry. FIGS. 4B and C.
as §1

[5] = target: PKC-dependent phosphorylation of Hsp27 (Homo sapiens, UniProt P04792); conditions: cited from earlier work
[6] = A549, erlotinib 0 to 20 micromolar, 72 hours
[7] = A549 OE, erlotinib 0 to 20 micromolar, 72 hours

Sequence of PKC-dependent phosphorylation of Hsp27 (P04792 whole entry): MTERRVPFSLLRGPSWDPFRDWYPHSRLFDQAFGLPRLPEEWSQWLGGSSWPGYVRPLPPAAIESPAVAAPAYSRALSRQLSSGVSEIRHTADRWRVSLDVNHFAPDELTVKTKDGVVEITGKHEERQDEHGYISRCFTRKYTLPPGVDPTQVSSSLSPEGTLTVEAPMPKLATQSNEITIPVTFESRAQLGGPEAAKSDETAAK

In the case of `C#Cc1cccc(Nc2ncnc3cc(OCCOC)c(OCCOC)cc23)c1` [Erlotinib, erlotinib], the “Hsp27 mRNA expression” value [1] is reported as “increased Hsp27 expression”, the “amounts of EGFR, Hsp27 and p-Hsp27 (Western Blot)” value ([2]; 10 μM Erlotinib, 1, 6, 24, 48 and 72 hours) is reported as “Increasing amounts” and the “cleaved PARP (Western Blot)” value ([2]; 10 μM Erlotinib, 1 to 72 hours) is reported as “observed at all times following 24 hours of treatment”. The “p-EGFR (Tyr 1068) (Western Blot)” value ([2]; 10 μM Erlotinib, 1 to 72 hours) was “not observed following treatment”, the “p-Hsp27, Hsp27, p-EGFR, EGFR, cleaved PARP (Western Blot), repeat” value ([2]; 48 hours, erlotinib 2.5, 5 and 10 μM) was “Qualitatively similar results” and the “Cleaved PARP (Western)” value [2, 6] was “increased”. For the same molecule, the “p-EGFR(Tyr1068) (Western)” value [2, 6] was “decrease”, the “p-EGFR (Tyr068) (Western)” value [3] was “decrease” and the “protein levels of P-Hsp27(ser82), Hsp27 (Western)” value [3] was “increased”. The “Cleaved PARP (Western)” value [4, 7] was “increased”, the “p-EGFR(Tyr1068) (Western)” value [4, 7] was “decrease” and the “p-Hsp27(Ser82) (Western)” value [4, 7] was “dose-dependent increase”. For the same molecule, the “apoptotic rate in cells with Hsp27 overexpression” value ([4]; Hsp27 OE A549 vs Empty A549, varying levels of erlotinib) was “decreased apoptotic rate”.
For `CCc1cc(-c2oncc2-c2ccc(OC)cc2)c(O)cc1OC` [KRIBB3, 5-(5-Ethyl-2-hydroxy-4-methoxyphenyl)-4-(4-methoxyphenyl)isoxazole], the IC50 [5] is given as 50 nM.
For `Nc1nc2[nH]cc(CCc3ccc(C(=O)N[C@@H](CCC(=O)O)C(=O)O)cc3)c2c(=O)[nH]1` [pemetrexed], the “pHsp27 and cleaved PARP signals (Western)” value ([2]; pemetrexed 0, 0.25, 0.5, 1.0 microMoles, zero to 48 hours) was “increase with dose and are greatest at 48 hours”.
